Read-outs that look alike come from different tables or passages of the source.
Columns and labels:
[1] = Liver microsome assay, metabolite formation; format: in vitro ADME, human; details: metabolite is compound 24B
K562 = assay: Cell growth assay, K562 cell line; format: cell-based, human; details: day 10, lack of activity is taken as evidence of on-target selectivity
Method: (§1) For all other cell lines, compounds were serially diluted in medium and dispensed in triplicate in 96-well plates (0.1% DMSO final for assay) followed by the addition of exponentially growing cells at densities ranging from 5,000 to 30,000 cells/well. Cells were also seeded into 2 additional control wells containing vehicle (0.1% DMSO). After 3 days, the number of viable cells in one of the control wells was counted by hemocytometer or MOXI Z (Orflo) and an equal volume of cells for all wells were split-back with fresh vehicle/compounds such that the resulting seeding density for the control well was 5,000-30,000 cells/well, matching the initial seeding density in that well. This procedure was repeated on day 7 and day 10. % growth was calculated as % growth=100×(total estimated cell number in well−day 0 starting cell number)/(total average vehicle estimated cell number−day 0 starting cell number). To determine the estimated cell number in each well, cells that were counted in the control well were diluted 3-fold for an 8-point dilution series, and transferred to 384-well plates in duplicate, 20 μL per well. Cells in all other wells were diluted 4-fold and transferred to 384-well plates in duplicate, 20 μL per well. 20 μL of CellTiter-Glo (Promega) was subsequently added to all wells and luminescence was detected using a SPECTRAmax M3. The control well dilution series was fit to a linear regression and used as a standard for calculating the estimated cell number for each well. For days 7 and 10, total estimated cell number represents the split-adjusted theoretical cell number.

MOLM-14 = assay: Cell growth assay, MOLM-14 AML cell line; format: cell-based, human
Method: as §1, with “After 3 days, the number of viable cells in one of the control wells was counted by hemocytometer or MOXI Z (Orflo) and an equal volume of cells for all wells were split-back with fresh vehicle/compounds such that the resulting seeding density for the control well was 5,000-30,000 cells/well, matching the initial seeding density in that well. This procedure was repeated on day 7 and day 10. % growth was calculated as % growth=100×(total estimated cell number in well−day 0 starting cell number)/(total average vehicle estimated cell number−day 0 starting cell number).” left out

AML cells = assay: Comparison with cortistatin A: AML cell growth inhibition and CDK8 kinase inhibition; format: cell-based, human; details: more potent than cortistatin A
Method: as §1, with “The control well dilution series was fit to a linear regression and used as a standard for calculating the estimated cell number for each well. For days 7 and 10, total estimated cell number represents the split-adjusted theoretical cell number.” left out

MV4;11 = assay: Cell growth assay, MV4;11 AML cell line; format: cell-based, human
Method: as §1, with “After 3 days, the number of viable cells in one of the control wells was counted by hemocytometer or MOXI Z (Orflo) and an equal volume of cells for all wells were split-back with fresh vehicle/compounds such that the resulting seeding density for the control well was 5,000-30,000 cells/well, matching the initial seeding density in that well. This procedure was repeated on day 7 and day 10. % growth was calculated as % growth=100×(total estimated cell number in well−day 0 starting cell number)/(total average vehicle estimated cell number−day 0 starting cell number).” left out

[2] = test system: MPLW515L-transduced bone marrow; assay: Murine model of primary myelofibrosis (MPLW515L); format: in vivo, mice
MV4;11 AML cells = assay: MV4;11 disseminated leukemia mouse model of AML; format: in vivo, NOD-SCID-IL2Rcγnull (NSG) mice; details: 0.05 and 0.16 mg/kg once daily for 15 days
Method: (§2) Efficacy studies using the MV4;11 xenograft model were performed as previously described. See, e.g., Etchin et al., Leukemia (2013) 27, 66-74. Briefly, 2 million MV4;11 mCLP cells were introduced into 7-week-old female NOD-SCID-IL2Rcγ^null (NSG) mice (The Jackson Laboratory) via tail vein injection. The tumor burden was assessed by bioluminescence imaging (BLI) using an IVIS Spectrum system (Caliper Life Sciences). […] At 30 days post-treatment start date, 3 mice per group were sacrificed and blood counts were obtained using Hemavet 950 F instrument (Drew Scientific) and spleen, femur, and peripheral blood cells were collected and analyzed by flow cytometry (LSR Fortessa, BD Biosciences). The mice and a portion of the spleen were also preserved in bouins for histopathology. Mice were sectioned, paraffin-embedded and stained with hematoxylin and eosin. Survival of the drug-treated mice was measured as the time from initiation of therapy until moribund state. Survival benefit was assessed by Kaplan-Meier analysis. […] 2 h after the last dose, the mice were sacrificed, blood counts were obtained, blood chemistry was analyzed and the mice were fixed with bouins for histopathology. […] Once tumors reached an average size of 80-120 mm^3, the mice were treated with vehicle or 0.16 mg kg^−1 daily for the duration of the study.

BCL2L11 expression = assay: BCL2L11 mRNA levels in MV4;11 and MOLM-14 cells; format: cell-based, human; details: 24 h treatment
[3] = test system: STAT1 pS727 (CDK8 module kinase activity) in HepG2 cells; assay: IFN-γ-stimulated STAT1 S727 phosphorylation, western blot; format: cell-based, human; details: 1 hour compound then 1 hour IFN-γ; STAT1 pY701 and total STAT1 unaltered
Method: CDK8 has been reported to […] interferon gamma-stimulated phosphorylation of STAT1 S727. See, e.g., Bancerek et al., Immunity (2013) 38:250-262. […] The cells were lysed and probed by western blot.
(§3) For STAT1 studies, MOLM-14 cells were treated with vehicle (0.1% DMSO) or compound for 1 h followed by the addition of IFNγ (Life Technologies, PHC4031) for 1 h. Cells were then collected, washed twice with cold PBS and snap frozen in liquid nitrogen. For all Western blotting, whole-cell lysates were prepared in RPA buffer (Sigma-Aldrich, R0278) with phosphatase and protease inhibitor additives (Sigma-Aldrich, P8340, P0044, P5762) and protein concentration was determined by BCA assay (Thermo Scientific, 23225). RIPA extracts were resolved by denaturing polyacrylamide gel electrophoresis (Life Technologies, NuPAGE) and transferred to PVDF membrane (Millipore) using the Mini Trans-Blot system (BioRad). The membranes were probed as recommended by the antibody manufacturers and proteins detected by chemiluminescence using horseradish peroxidase-conjugated secondary antibodies. For SMAD2/3 studies, HaCaT cells were treated as described for STAT1 with the addition of TGFβ1 (R&D Systems) in place of IFNγ.

Wnt/beta-catenin pathway = assay: Wnt/beta-catenin reporter assay (SuperTOPflash luciferase, HEK293STF); format: cell-based; details: 24 hour treatment with Wnt3A or 10 μM azakenpaullone; read-out: IC50, inhibition of luciferase expression
Method: Exponentially growing HEK293STF were plated in triplicate in 96-well plates at a density of 5,000 cells/well in 75 μL. […] Additional triplicate control wells on each plate had media without cells or cells without azakenpaullone. For experiments with Wnt3A conditioned media, after 24 h, compounds were serially diluted in Wnt3A conditioned media as 1× solutions (0.1% DMSO final). Old media was removed from the cells and replaced with the compound/Wnt3A-media. Additional triplicate control wells on each plate had media without cells or cells that were treated with L-conditioned media (no Wnt3A). After 24 h, the CellTiter-Fluor and Steady-Glo assays (Promega) were subsequently performed in series to determine viability and luminescence, respectively, in each well (measurements made on a SPECTRAmax M3, Molecular Devices). Graphs were made in Prism 5 (GraphPad Software, Inc.) with nonlinear regression fit to a sigmoidal dose-response curve (variable slope).

[4] = test system: SMAD2/3 phosphorylation in HaCat cells; assay: TGF-beta-stimulated SMAD2/3 phosphorylation, western blot; format: cell-based; details: 1 hour compound then 1 hour TGF-beta
Method: as §3

[5] = Safety testing in healthy CD-1 mice; format: in vivo; details: 0.16 mg kg-1 once daily for 15 days, 2 hours after last dose
Method: as §2

[6] = test system: SET-2 subcutaneous xenograft; assay: SET-2 subcutaneous xenograft model; format: in vivo, SCID Beige mice; details: 0.16 mg kg-1 daily, n=10, P<0.001
Method: as §2

[7] = Pharmacokinetic study of cortistatin A in CD-1 mice; format: in vivo, CD-1 mice; details: for Cmax: mouse, in vivo, ip
[8] = Human hepatocyte stability assay; format: in vitro ADME; details: 1 μM
Method: Test compounds were incubated in duplicate with cryopreserved hepatocytes at 37° C. The cells were thawed; viable cells counted, and equilibrated according to the supplier's directions. After 30 min equilibration at 37° C. with gentle agitation, the test compounds were added into the cells to give the desired final concentration of 1 μM. The cell suspension was incubated at 37° C. as above. At the indicated times, samples were removed and mixed with an equal volume of ice-cold Stop Solution (acetonitrile containing internal standards). Stopped reactions were incubated at least ten minutes on ice, and an additional volume of water was added. The samples were centrifuged to remove precipitated protein, and the supernatants were analyzed by LC/MS/MS to quantitate the remaining parent. Data were converted to % remaining by dividing by the time zero concentration value. Data were fit to a first-order decay model to determine half-life. From a plot of log (ln) peak area against time, the slope of the line was determined. Subsequently, half-life and intrinsic clearance were calculated using the equations below: Elimination rate constant (k)=(−slope); Half-life (T1/2) min=0.693/k; Intrinsic Clearance (CLint) (ml/min/million cells)=(V×0.693)/T1/2; V=incubation volume ml/number of cells.

[9] = Liver microsome metabolic stability assay; format: in vitro ADME; details: 1 micromolar, 0.5 mg/ml microsomal protein
Method: Test compounds were incubated at 37° C. with liver microsomes pooled from multiple donors at 1 micromolar in the presence of a NADPII regenerating system at 0.5 mg/ml microsomal protein. At 0, 5, 10, 20, 30, and 60 minutes, samples were removed, and mixed with cold acetonitrile containing an internal standard. After protein separation, samples were analyzed by LC/MS/MS for disappearance of the test compound using the ratio of peak area of analyte to internal standard. From the values, the microsome clearance was calculated. Species used were human, Sprague Dawley rat, beagle dog, and CD-1 mouse.

[10] = Homo sapiens, MOLM-14, 240 h, day 10, cells passaged, fresh compound added on days 3 and 7, read-out: MOL M14 G150 day 10
[11] = Homo sapiens, MV4-11, 240 h, day 10, cells passaged, fresh compound added on days 3 and 7, read-out: MV 4;11 GI50 day 10

## CN(C)[C@H]1CCC2=CC3=CC[C@]4(C)[C@@H](c5ccc6ccncc6c5)CC[C@H]4C34CC[C@]2(C1)O4 [14B, β-dimethylamine]
[1]
  metabolism in human liver microsomes: undergoes N-monodemethylation at C3
K562; Homo sapiens, K562, 240 h
  GI50: > 1000 nM
MOLM-14; [10]
  GI50: 3 nM
MOLM-14; Homo sapiens, MOLM-14, day 7, fresh compound added on day 3, read-out: MOL M14 GI50 day 7
  GI50: 7 nM
AML cells
  potency relative to cortistatin A in cell growth inhibition and in CDK8 kinase inhibition: approximately 2 fold
MV4;11; [11]
  GI50: 4 nM
MV4;11; Homo sapiens, MV4-11, day 7, fresh compound added on day 3, read-out: MV4;11 GI50 day 7
  GI50: 8 nM

## cortistatin A [CA]
[2]; 0.31 mg/kg and 0.62 mg/kg i.p. once daily, after 6 doses
  spleen weights: significant reduction
[2]; after 4 doses of daily treatment
  allele burden (GFP percentage in peripheral blood): significant reduction
MV4;11 AML cells
  efficacy (bioluminescence, survival, spleen and bone marrow burden): effective
MV4;11 AML cells; n=11
  mean body weight: did not decrease
BCL2L11 expression
  mRNA levels of BCL2L11: dose-dependently increases
K562
  GI50: > 1000 nM
MOLM-14; day 7, fresh compound added on day 3, read-out: MOL M14 GI50 day 7
  GI50: 9 nM
MOLM-14; day 10, cells passaged, fresh compound added on days 3 and 7, read-out: MOL M14 G150 day 10
  GI50: 5 nM
[3]
  inhibition of IFN-γ-stimulated increase in STAT1 pS727: potently inhibited
Wnt/beta-catenin pathway
  IC50: 1.5 nM
[4]
  TGF-beta-stimulated SMAD2/3 phosphorylation: dose-dependently inhibited
[5]
  complete blood count (CBC) vs vehicle: no significant differences
[6]
  tumor growth inhibition: 68%
[7]; 10 mg/kg IP in 10% DMSO/phosphate buffered saline pH6, male CD-1 mice
  calculated T1/2: 6.06 h
[7]; 1 mg/kg
  Cmax: 762 nM
[7]; 10 mg/kg, pH 6
  Cmax: 1400 nM
[7]; single IP injection 1 mg/kg in 20% HPCD, male CD-1 mice
  calculated T1/2 between 0.5-2 h: 0.55 h
MV4;11; day 7, fresh compound added on day 3, read-out: MV4;11 GI50 day 7
  GI50: 9 nM
MV4;11; day 10, cells passaged, fresh compound added on days 3 and 7, read-out: MV 4;11 GI50 day 10
  GI50: 4 nM

## C[C@]12CC=C3C=C4CC[C@H]([N+](C)(C)[O-])CC45CC[C@]3(O5)[C@@H]1CC[C@@H]2c1ccc2ccncc2c1 [14BNO, 14B-N-Oxide]
K562; Homo sapiens, K562, 240 h
  GI50: > 1000 nM
MOLM-14; [10]
  GI50: 2 nM
[8]
  half-life and clearance rate in hepatocytes: acceptable half-life and clearance rate
[9]
  metabolic stability in liver microsomes compared with 14B: increased stability
[9]; listed as N-oxide of compound 14B
  metabolic stability in liver microsomes compared with 14B: improved stability
MV4;11; [11]
  GI50: 1 nM

Reference: patent US10273241B2 (President and Fellows of Harvard College, priority 2013, dated 2019)
